Here are results for 8 compounds from patent publication US9073912B2, “Azetidine derivatives as antiparasitic agents” (Zoetis LLC, priority 2012, dated 2015).

This assay has as its system Ctenocephalides felis. As to the kind of experiment: Flea (Ctenocephalides felis) Membrane Feed Assay-Adult. The following applies: for lethal dose 80% (LD80): adult fleas fed approx. 2 hours on treated citrated bovine blood, knockdown and/or death observed at approx. 2 and 24 hours; for minimum effective concentration (MEC): assessed at 24 hours, 10-flea sample. As to the method:
Flea (Ctenocephalides felis) Membrane Feed Assay-Adult
Formula (1) compounds were dissolved in DMSO and aliquots added to citrated bovine blood in a membrane covered Petri dish pre-warmed to 37° C. Feeding tubes containing approximately 30-35 adult fleas were placed onto the Petri dishes. The fleas fed for approximately 2 hours. […] Endpoint data is recorded as a lethal dose 80% (LD^80) in μg/mL. […] Further, the results can be assessed at 24 hours based on minimum effective concentration (MEC) in μM with a 10-flea sample.

Take `CS(=O)(=O)CC(=O)N1CC(F)(c2ccc(C3=NCC(c4cc(Cl)c(F)c(Cl)c4)(C(F)(F)F)C3)cc2)C1` (centres unmarked) [Example 3, 3-(3,5-dichloro-4-fluorophenyl)-5-(4-{3-fluoro-1-[(methylsulfonyl)-acetyl]azetidin-3-yl}phenyl)-3-(trifluoromethyl)-3,4-dihydro-2H-pyrrole]: the “lethal dose 80% (LD80)” value was 3 µg/mL and the “minimum effective concentration (MEC)” value stood at 1 µM.

`CS(=O)(=O)CC(=O)N1CC(F)(c2ccc(C3=NCC(c4cc(Cl)cc(Cl)c4)(C(F)(F)F)C3)cc2)C1` (centres unmarked) [Example 1, 1-(3-{4-[4-(3,5-dichloro-phenyl)-4-trifluoromethyl-4,5-dihydro-3H-pyrrol-2-yl]-phenyl}-3-fluoro-azetidin-1-yl)-2-methanesulfonyl-ethanone]: the “minimum effective concentration (MEC)” value was found to be 3 µM.

Consider `CC(C)C(=O)N1CC(F)(c2ccc(C3=NOC(c4cc(Cl)c(F)c(Cl)c4)(C(F)(F)F)O3)cc2)C1` (centres unmarked) [Example 8, 1-(3-{4-[5(3,5-dichloro-4-fluoro-phenyl)-5-trifluoromethyl-[1,4,2]dioxazol-3-yl]-phenyl}-3-fluoro-azetidin-1-yl)-2-methyl-propan-1-one], for which the “minimum effective concentration (MEC)” value worked out at 30 µM.

With `CS(=O)(=O)CC(=O)N1CC(F)(c2ccc(C3=NCC(c4cc(Cl)c(Cl)c(Cl)c4)(C(F)(F)F)C3)cc2)C1` (centres unmarked) [Example 5, 1-(3-fluoro-3-{4-[4-(3,4,5-trichloro-phenyl)-4-trifluoromethyl-4,5-dihydro-3H-pyrrol-2-yl]-phenyl}-azetidin-1-yl)-2-methanesulfonyl-ethanone], the “lethal dose 80% (LD80)” value was found to be 1 µg/mL and the “minimum effective concentration (MEC)” value was 1 µM.

For `CC(C)C(=O)N1CC(F)(c2ccc(C3=NCC(c4cc(Cl)c(Cl)c(Cl)c4)(C(F)(F)F)C3)cc2)C1` (centres unmarked) [Example 6, 5-[4-(3-fluoro-1-isobutyrylazetidin-3-yl)phenyl]-3-(3,4,5-trichloro-phenyl)-3-(trifluoromethyl)-3,4-dihydro-2H-pyrrole], the “lethal dose 80% (LD80)” value was determined as 3 µg/mL.

`CC(C)C(=O)N1CC(F)(c2ccc(C3=NCC(c4cc(Cl)cc(Cl)c4)(C(F)(F)F)C3)cc2)C1` (centres unmarked) [Example 2, 1-(3-{4-[4-(3,5-dichloro-phenyl)-4-trifluoromethyl-4,5-dihydro-3H-pyrrol-2-yl]-phenyl}-3-fluoro-azetidin-1-yl)-2-methyl-propan-1-one]: the “lethal dose 80% (LD80)” value turned out to be 0.3 µg/mL and the “minimum effective concentration (MEC)” value is 1 µM.

Take `CS(=O)(=O)CC(=O)N1CC(F)(c2ccc(C3=NNC(c4cc(Cl)c(F)c(Cl)c4)(C(F)(F)F)C3)cc2)C1` (centres unmarked) [Example 18, 1-(3-(4-(5-(3,5-dichloro-4-fluorophenyl)-5-(trifluoromethyl)-4,5-dihydro-1H-pyrazol-3-yl)phenyl)-3-fluoroazetidin-1-yl)-2-(methylsulfonyl)ethanone]: the “minimum effective concentration (MEC)” value came out at 30 µM.

Take `CC(C)C(=O)N1CC(F)(c2ccc(C3=NCC(c4cc(Cl)c(F)c(Cl)c4)(C(F)(F)F)C3)cc2)C1` (centres unmarked) [Example 4, 3-(3,5-dichloro-4-fluorophenyl)-5-[4-(3-fluoro-1-isobutyrylazetidin-3-yl)phenyl]-3-(trifluoromethyl)-3,4-dihydro-2H-pyrrole]: the “minimum effective concentration (MEC)” value was found to be 1 µM.
